Data taken from ChEMBL document CHEMBL1681722, “5-oxo-15-HETE: total synthesis and bioactivity” (Bioorg Med Chem Lett, 2011).
The source made the active and inactive calls. No cut-off for these calls is given here.

Legend:
Oxoeicosanoid receptor 1 [1] = molecular target: T1, Oxoeicosanoid receptor 1 (Homo sapiens, UniProt Q8TDS5); test: Agonist activity at 5-oxo-ETE receptor in human neutrophils assessed as stimulation of ca2+ mobilization at 100 nM in presence of 5-oxo-ETE; type: functional
[2] = Stability of the compound at -80 degC after 3 years by reversed-phase HPLC; type: physicochemical; settings: 26298 h
Oxoeicosanoid receptor 1 [3] = molecular target: T1, Oxoeicosanoid receptor 1; test: Agonist activity at 5-oxo-ETE receptor in human neutrophils assessed as stimulation of ca2+ mobilization; type: functional

T1 sequence (Q8TDS5 whole entry): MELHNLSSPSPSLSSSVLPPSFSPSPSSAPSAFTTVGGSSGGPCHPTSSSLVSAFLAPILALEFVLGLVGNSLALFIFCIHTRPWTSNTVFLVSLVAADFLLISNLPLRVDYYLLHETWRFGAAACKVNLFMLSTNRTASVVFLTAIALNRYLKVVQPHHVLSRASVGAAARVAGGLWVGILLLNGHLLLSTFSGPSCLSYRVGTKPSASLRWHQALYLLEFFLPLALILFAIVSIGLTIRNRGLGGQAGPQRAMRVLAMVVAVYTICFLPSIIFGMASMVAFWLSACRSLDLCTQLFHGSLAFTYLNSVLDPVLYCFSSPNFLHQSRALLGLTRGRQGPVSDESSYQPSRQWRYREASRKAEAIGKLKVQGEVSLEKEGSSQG

Row | Structure (SMILES) | Activity (Oxoeicosanoid receptor 1 [1]) | Stability [2] | EC50 (Oxoeicosanoid receptor 1 [3])
1 | CCCCC[C@H](O)/C=C/C=C\C/C=C\C=C\C(=O)CCCC(=O)O | inactive | Stable | 56 nM
2 | CCCCC/C=C\C/C=C\C/C=C\C=C\C(=O)CCCC(=O)O [5-OXO-ETE] |  |  | 7 nM
